As a reminder, the pIC50 is the IC50 on a negative log10 scale, so that one unit is a factor of ten. Broadly, the pKi is the negative decadic logarithm of the Ki, by convention in mol/L.

pIC50, pKi: −log10 of the molar value.

From ChEMBL document CHEMBL1909046, “DrugMatrix in vitro pharmacology data” come the findings set out here.

Experiment [1] can be described thus: DRUGMATRIX: Imidazoline I2, Central radioligand binding (ligand: [3H] Idazoxan). The experiment is classed as cell membranes, Rattus norvegicus, Wistar, Cerebral cortex, Membrane. The settings on record: Not Active = under 50% inhibition at 10 µM.
For experiment [2], the target named is D(1A) dopamine receptor (Homo sapiens, UniProt P21728). Put plainly: DRUGMATRIX: Dopamine D1 radioligand binding (ligand: [3H] SCH-23390). The experiment is classed as cell membranes, CHO, Membrane. The settings on record: cho; Not Active = under 50% inhibition at 10 µM.
The target of experiment [3] is T1, Alpha-1B adrenergic receptor (Rattus norvegicus, UniProt P15823).
T1 sequence (P15823 whole entry): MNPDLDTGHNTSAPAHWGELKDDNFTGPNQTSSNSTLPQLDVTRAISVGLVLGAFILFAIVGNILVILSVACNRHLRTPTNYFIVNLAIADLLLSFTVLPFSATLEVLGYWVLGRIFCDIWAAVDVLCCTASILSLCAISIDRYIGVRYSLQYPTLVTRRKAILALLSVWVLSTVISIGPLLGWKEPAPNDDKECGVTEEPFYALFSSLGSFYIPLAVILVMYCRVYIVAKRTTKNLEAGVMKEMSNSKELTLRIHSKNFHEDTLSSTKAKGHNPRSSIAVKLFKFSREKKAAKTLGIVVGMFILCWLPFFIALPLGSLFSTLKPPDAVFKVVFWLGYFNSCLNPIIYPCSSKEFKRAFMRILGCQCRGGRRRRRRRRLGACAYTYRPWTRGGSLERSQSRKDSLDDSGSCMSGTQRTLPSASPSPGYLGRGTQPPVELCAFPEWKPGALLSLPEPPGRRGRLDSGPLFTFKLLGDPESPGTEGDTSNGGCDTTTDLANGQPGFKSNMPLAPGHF
Put plainly: DRUGMATRIX: Alpha-1B adrenergic receptor radioligand binding (ligand: prazosin). The experiment is classed as cell membranes, Wistar, Liver, Membrane. To be noted: Not Active = under 50% inhibition at 10 µM.

For experiment [4], the target named is T2, Type-2 angiotensin II receptor (Homo sapiens, UniProt P50052). Also: in other assays of this panel Not Active means under 50% inhibition at 10 µM.
T2 sequence (P50052 whole entry): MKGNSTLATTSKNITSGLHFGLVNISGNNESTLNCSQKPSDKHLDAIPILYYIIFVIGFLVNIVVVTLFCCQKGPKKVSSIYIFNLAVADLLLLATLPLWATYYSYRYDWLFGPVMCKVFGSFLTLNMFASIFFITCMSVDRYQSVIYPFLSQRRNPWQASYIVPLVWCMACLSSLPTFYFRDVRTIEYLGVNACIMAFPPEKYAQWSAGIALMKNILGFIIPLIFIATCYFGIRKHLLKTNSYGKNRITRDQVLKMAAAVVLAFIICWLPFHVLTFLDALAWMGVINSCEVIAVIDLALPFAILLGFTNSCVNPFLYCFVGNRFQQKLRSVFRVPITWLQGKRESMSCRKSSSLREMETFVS
It counts as cell-based. To be noted: cho-k1.

For experiment [5], the target named is T3, C-X-C chemokine receptor type 2 (Homo sapiens, UniProt P25025). Also: in other assays of this panel Not Active means under 50% inhibition at 10 µM.
T3 sequence (P25025 whole entry): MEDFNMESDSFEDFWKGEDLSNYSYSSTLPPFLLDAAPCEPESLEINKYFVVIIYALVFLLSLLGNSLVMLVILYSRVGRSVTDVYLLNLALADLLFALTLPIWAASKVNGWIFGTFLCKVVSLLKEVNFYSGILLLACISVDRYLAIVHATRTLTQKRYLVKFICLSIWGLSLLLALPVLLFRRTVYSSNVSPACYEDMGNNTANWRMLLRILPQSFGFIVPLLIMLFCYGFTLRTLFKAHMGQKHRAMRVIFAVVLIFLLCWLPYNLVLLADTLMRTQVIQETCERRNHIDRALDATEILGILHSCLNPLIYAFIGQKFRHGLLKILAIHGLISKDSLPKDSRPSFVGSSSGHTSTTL
The experiment is classed as cell membranes, Membrane. To be noted: cho-k1.

Experiment [6] concerns the target T4, 5-hydroxytryptamine receptor 1A (Rattus norvegicus, UniProt P19327). Also: in other assays of this panel Not Active means under 50% inhibition at 10 µM.
T4 sequence (P19327 whole entry): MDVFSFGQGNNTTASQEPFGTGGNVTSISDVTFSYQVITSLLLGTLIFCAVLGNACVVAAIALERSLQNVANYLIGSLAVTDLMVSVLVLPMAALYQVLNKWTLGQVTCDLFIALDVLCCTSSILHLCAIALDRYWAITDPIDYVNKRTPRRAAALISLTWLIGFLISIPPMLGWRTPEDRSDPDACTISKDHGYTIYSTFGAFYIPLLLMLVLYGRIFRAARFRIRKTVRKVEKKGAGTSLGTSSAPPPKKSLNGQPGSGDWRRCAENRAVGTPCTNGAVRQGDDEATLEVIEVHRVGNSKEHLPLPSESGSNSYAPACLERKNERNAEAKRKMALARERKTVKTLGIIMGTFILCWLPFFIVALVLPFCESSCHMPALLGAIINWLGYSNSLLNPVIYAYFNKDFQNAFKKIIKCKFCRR
The experiment is classed as cell membranes, CHO-K1, Membrane. To be noted: cho-k1.

The target of experiment [7] is T5, Neutrophil elastase (Homo sapiens, UniProt P08246).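 Also: inhibition of neutrophil elastase enzyme activity, measured with a p-nitroanilide-linked peptide substrate; in other assays of this panel Not Active means under 50% inhibition at 10 µM.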
T5 sequence (P08246 whole entry): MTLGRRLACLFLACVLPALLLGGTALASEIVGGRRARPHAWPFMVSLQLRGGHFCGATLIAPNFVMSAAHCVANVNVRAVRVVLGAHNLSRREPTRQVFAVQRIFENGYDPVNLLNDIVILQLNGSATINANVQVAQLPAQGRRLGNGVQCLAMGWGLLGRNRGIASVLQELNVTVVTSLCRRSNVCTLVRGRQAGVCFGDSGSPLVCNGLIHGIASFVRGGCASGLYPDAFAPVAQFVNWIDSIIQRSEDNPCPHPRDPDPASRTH
The experiment is classed as tissue-based.

For experiment [8], the target named is T6, Glucocorticoid receptor (Homo sapiens, UniProt P04150). Also: in other assays of this panel Not Active means under 50% inhibition at 10 µM.
T6 sequence (P04150 whole entry): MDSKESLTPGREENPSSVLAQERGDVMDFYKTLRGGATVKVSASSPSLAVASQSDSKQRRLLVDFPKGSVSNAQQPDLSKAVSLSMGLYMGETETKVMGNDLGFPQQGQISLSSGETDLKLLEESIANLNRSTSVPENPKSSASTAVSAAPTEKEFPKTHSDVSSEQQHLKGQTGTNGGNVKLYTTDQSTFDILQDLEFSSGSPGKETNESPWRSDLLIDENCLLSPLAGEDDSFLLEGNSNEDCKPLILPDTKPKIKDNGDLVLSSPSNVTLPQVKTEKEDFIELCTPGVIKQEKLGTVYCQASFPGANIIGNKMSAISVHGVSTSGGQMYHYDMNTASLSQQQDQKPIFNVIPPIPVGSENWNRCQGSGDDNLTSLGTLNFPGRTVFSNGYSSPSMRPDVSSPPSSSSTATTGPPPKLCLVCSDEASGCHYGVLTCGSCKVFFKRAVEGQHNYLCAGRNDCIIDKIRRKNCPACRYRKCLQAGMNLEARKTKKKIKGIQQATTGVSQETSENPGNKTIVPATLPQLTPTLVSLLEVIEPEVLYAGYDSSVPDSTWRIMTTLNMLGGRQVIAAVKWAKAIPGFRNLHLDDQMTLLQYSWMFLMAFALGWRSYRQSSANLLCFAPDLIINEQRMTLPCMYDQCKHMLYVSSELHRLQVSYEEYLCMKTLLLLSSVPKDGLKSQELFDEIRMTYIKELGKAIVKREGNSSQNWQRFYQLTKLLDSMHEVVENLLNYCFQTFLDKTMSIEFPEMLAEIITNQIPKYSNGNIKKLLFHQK
The settings on record: hela s3.

Sequence of D(1A) dopamine receptor (P21728 whole entry): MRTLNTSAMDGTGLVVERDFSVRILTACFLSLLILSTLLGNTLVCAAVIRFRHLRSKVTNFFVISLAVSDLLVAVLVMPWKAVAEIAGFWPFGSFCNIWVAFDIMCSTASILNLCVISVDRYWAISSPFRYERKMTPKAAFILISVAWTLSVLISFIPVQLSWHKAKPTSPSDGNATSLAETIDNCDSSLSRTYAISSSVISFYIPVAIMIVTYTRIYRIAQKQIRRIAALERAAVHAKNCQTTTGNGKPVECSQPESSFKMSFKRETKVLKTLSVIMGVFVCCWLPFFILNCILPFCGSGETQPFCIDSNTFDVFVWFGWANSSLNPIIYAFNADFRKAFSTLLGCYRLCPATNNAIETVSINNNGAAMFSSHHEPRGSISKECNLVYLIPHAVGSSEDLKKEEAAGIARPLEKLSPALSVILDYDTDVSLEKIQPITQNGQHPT

Regarding `COc1ccc(CN(CCN(C)C)c2ccccn2)cc1` [PYRILAMINE], the pIC50 in experiment [1] (read-out: IC50) is 5.48. Further, in experiment [1] (read-out: Ki), the pKi is 5.65. The IC50 result in experiment [2], in experiment [3], in experiment [4], in experiment [5], in experiment [6] and in experiment [7] was “Not Active” each time. In addition, the IC50 result in experiment [8] is given as “Not Active”.

Take CARBOPLATIN: the IC50 entry in experiment [1], in experiment [2], in experiment [3], in experiment [4], in experiment [5] and in experiment [6] was “Not Active” in each case. For the same compound, the IC50 result in experiment [7] and in experiment [8] was “Not Active” each time. Moreover, the Ki entry in experiment [1], in experiment [2], in experiment [3], in experiment [4], in experiment [5] and in experiment [6] was “Not Active” each time. For the same compound, the Ki entry in experiment [7] and in experiment [8] was “Not Active” throughout.

CISPLATIN: the IC50 entry in experiment [1], in experiment [2], in experiment [3], in experiment [4], in experiment [6] and in experiment [7] was “Not Active” throughout. In experiment [8], the IC50 result is listed as “Not Active”. The Ki result in experiment [1], in experiment [2], in experiment [3], in experiment [4], in experiment [6] and in experiment [7] was “Not Active” each time. For the same compound, in experiment [8], the Ki entry is listed as “Not Active”. Moreover, the pIC50 in experiment [5] (read-out: IC50) was 4.87. For the same compound, the pKi in experiment [5] (read-out: Ki) was 5.02.

Regarding GOLD SODIUM THIOMALATE, the IC50 entry in experiment [1], in experiment [2], in experiment [3], in experiment [4], in experiment [5] and in experiment [6] was “Not Active” throughout. In addition, the IC50 result in experiment [7] and in experiment [8] was “Not Active” in each case. The Ki entry in experiment [1], in experiment [2], in experiment [3], in experiment [4], in experiment [5] and in experiment [6] was “Not Active” throughout. Moreover, the Ki entry in experiment [7] and in experiment [8] was “Not Active” throughout.

For OXALIPLATIN, the IC50 entry in experiment [1], in experiment [2], in experiment [3], in experiment [4], in experiment [5] and in experiment [6] was “Not Active” each time. Besides, the IC50 result in experiment [7] and in experiment [8] was “Not Active” throughout. Further, the Ki entry in experiment [1], in experiment [2], in experiment [3], in experiment [4], in experiment [5] and in experiment [6] was “Not Active” throughout. Also, the Ki result in experiment [7] and in experiment [8] was “Not Active” in each case.
